Experimental findings from ChEMBL document CHEMBL1143418, “Colistin methanesulfonate against multidrug-resistant Acinetobacter baumannii in an in vitro pharmacodynamic model” (2007) are described below.

Converted amounts (≈) assume the structure as drawn. The source made the active and inactive calls. The calls are words filed in the database; no cut-off is given here.

Test [1] concerns Acinetobacter baumannii. Nature of the test: Antibacterial activity against multidrug-resistant Acinetobacter baumannii 06-74 isolate assessed as reduction in bacterial load at 50 ug/ml administered as continuous infusion in vitro pharmacodynamic model after 3 to 4 hrs by time kill experiment. The test is classed as functional.
Test [2] concerns Acinetobacter baumannii. Nature of the test: Antibacterial activity against multidrug-resistant Acinetobacter baumannii 06-74 isolate assessed as regrowth bacterial load at 50 ug/ml administered as continuous infusion in vitro pharmacodynamic model after 3 to 4 hrs by time kill experiment. The test is classed as functional.
For test [3], the system named is Acinetobacter baumannii. Nature of the test: Antibacterial activity against multidrug-resistant Acinetobacter baumannii 06-74 isolate by CLSI microdilution test. In kind it is functional. (In broth dilution the organism is exposed to a series of concentrations in liquid medium.)
In test [4] the test system is Acinetobacter baumannii. Nature of the test: Antibacterial activity against multidrug-resistant Acinetobacter baumannii 06-74 isolate assessed as prevention of bacterial regrowth at 24 ug/ml first dose and 24 ug/ml of second dose administered 12 hrs after first dose as bolus dose in in vitro pharmacodynamic model vessel measured 2 to 3 hrs after last dose by time kill experiment. In kind it is functional, organism-based.

Test [5] concerns Acinetobacter baumannii. Nature of the test: Antibacterial activity against 24 ug/mL bolus dose Colistin methanesulfonate exposed multidrug-resistant Acinetobacter baumannii 06-74 isolate by CLSI microdilution test. In kind it is functional, organism-based.
The subject of test [6] is Acinetobacter baumannii. Nature of the test: Antibacterial activity against 3 ug/mL Colistin methanesulfonate exposed multidrug-resistant Acinetobacter baumannii 06-74 isolate by CLSI microdilution test. In kind it is functional, organism-based.
Test [7] relates to Acinetobacter baumannii. Nature of the test: Antibacterial activity against 6 ug/mL Colistin methanesulfonate exposed multidrug-resistant Acinetobacter baumannii 06-74 isolate by CLSI microdilution test. In kind it is functional, organism-based.
For test [8], the system named is Acinetobacter baumannii. Nature of the test: Antibacterial activity against 12 ug/mL Colistin methanesulfonate exposed multidrug-resistant Acinetobacter baumannii 06-74 isolate by CLSI microdilution test. In kind it is functional, organism-based.
For test [9], the system named is Acinetobacter baumannii. Nature of the test: Antibacterial activity against 24 ug/mL Colistin methanesulfonate exposed multidrug-resistant Acinetobacter baumannii 06-74 isolate by CLSI microdilution test. In kind it is functional, organism-based.
The test system of test [10] is Acinetobacter baumannii. Nature of the test: Antibacterial activity against multidrug-resistant Acinetobacter baumannii 06-74 isolate assessed as reduction in bacterial load at 3 ug/ml administered as bolus dose after 2 to 3 hrs by time kill experiment. The test is classed as functional, organism-based.
The test system of test [11] is Acinetobacter baumannii. Nature of the test: Antibacterial activity against multidrug-resistant Acinetobacter baumannii 06-74 isolate assessed as reduction in bacterial load at 6 ug/ml administered as bolus dose after 2 to 3 hrs by time kill experiment. The test is classed as functional, organism-based.
In test [12] the test system is Acinetobacter baumannii. Nature of the test: Antibacterial activity against multidrug-resistant Acinetobacter baumannii 06-74 isolate assessed as reduction in bacterial load at 12 ug/ml administered as bolus dose after 2 to 3 hrs by time kill experiment. The test is classed as functional, organism-based.
The test system of test [13] is Acinetobacter baumannii. Nature of the test: Antibacterial activity against multidrug-resistant Acinetobacter baumannii 06-74 isolate assessed as reduction in bacterial load at 24 ug/ml administered as bolus dose after 2 to 3 hrs by time kill experiment. The test is classed as functional, organism-based.
Test [14] has as its system Acinetobacter baumannii. Nature of the test: Antibacterial activity against multidrug-resistant Acinetobacter baumannii 06-74 isolate assessed as regrowth bacterial load at 3 ug/ml administered as bolus dose after 24 hrs by time kill experiment. The test is classed as functional, organism-based.
The test system of test [15] is Acinetobacter baumannii. Nature of the test: Antibacterial activity against multidrug-resistant Acinetobacter baumannii 06-74 isolate assessed as regrowth bacterial load at 6 ug/ml administered as bolus dose after 24 hrs by time kill experiment. The test is classed as functional, organism-based.
The test system of test [16] is Acinetobacter baumannii. Nature of the test: Antibacterial activity against multidrug-resistant Acinetobacter baumannii 06-74 isolate assessed as regrowth bacterial load at 12 ug/ml administered as bolus dose after 24 hrs by time kill experiment. The test is classed as functional, organism-based.
Test [17] deals with Acinetobacter baumannii. Nature of the test: Antibacterial activity against multidrug-resistant Acinetobacter baumannii 06-74 isolate assessed as regrowth bacterial load at 24 ug/ml administered as bolus dose after 24 hrs by time kill experiment. In kind it is functional, organism-based.
Test [18] relates to Acinetobacter baumannii. Nature of the test: Antibacterial activity against multidrug-resistant Acinetobacter baumannii 06-74 isolate assessed as reduction in bacterial load at 3 ug/ml first dose and 24 ug/ml of second dose administered 12 hrs after first dose as bolus dose in in vitro pharmacodynamic model vessel measured 2 to 3 hrs after last dose by time kill experiment. In kind it is functional, organism-based.

For test [19], the system named is Acinetobacter baumannii. Nature of the test: Antibacterial activity against multidrug-resistant Acinetobacter baumannii 06-74 isolate assessed as reduction in bacterial load at 6 ug/ml first dose and 24 ug/ml of second dose administered 12 hrs after first dose as bolus dose in in vitro pharmacodynamic model vessel measured 2 to 3 hrs after last dose by time kill experiment. In kind it is functional, organism-based.

The test system of test [20] is Acinetobacter baumannii. Nature of the test: Antibacterial activity against multidrug-resistant Acinetobacter baumannii 06-74 isolate assessed as reduction in bacterial load at 12 ug/ml first dose and 24 ug/ml of second dose administered 12 hrs after first dose as bolus dose in in vitro pharmacodynamic model vessel measured 2 to 3 hrs after last dose by time kill experiment. The test is classed as functional, organism-based.

The test system of test [21] is Acinetobacter baumannii. Nature of the test: Antibacterial activity against multidrug-resistant Acinetobacter baumannii 06-74 isolate assessed as reduction in bacterial load at 24 ug/ml first dose and 24 ug/ml of second dose administered 12 hrs after first dose as bolus dose in in vitro pharmacodynamic model vessel measured 2 to 3 hrs after last dose by time kill experiment. In kind it is functional, organism-based.

The subject of test [22] is Acinetobacter baumannii. Nature of the test: Antibacterial activity against multidrug-resistant Acinetobacter baumannii 06-74 isolate assessed as prevention of bacterial regrowth at 3 ug/ml first dose and 24 ug/ml of second dose administered 12 hrs after first dose as bolus dose in in vitro pharmacodynamic model vessel measured 2 to 3 hrs after last dose by time kill experiment. The test is classed as functional, organism-based.

Test [23] concerns Acinetobacter baumannii. Nature of the test: Antibacterial activity against multidrug-resistant Acinetobacter baumannii 06-74 isolate assessed as prevention of bacterial regrowth at 6 ug/ml first dose and 24 ug/ml of second dose administered 12 hrs after first dose as bolus dose in in vitro pharmacodynamic model vessel measured 2 to 3 hrs after last dose by time kill experiment. In kind it is functional, organism-based.

In test [24] the test system is Acinetobacter baumannii. Nature of the test: Antibacterial activity against multidrug-resistant Acinetobacter baumannii 06-74 isolate assessed as prevention of bacterial regrowth at 12 ug/ml first dose and 24 ug/ml of second dose administered 12 hrs after first dose as bolus dose in in vitro pharmacodynamic model vessel measured 2 to 3 hrs after last dose by time kill experiment. The test is classed as functional, organism-based.

In test [25] the test system is Acinetobacter baumannii. Nature of the test: Antibacterial activity against multidrug-resistant Acinetobacter baumannii 06-74 isolate by time kill experiment. In kind it is functional, organism-based.

`CC(C)(O/N=C(\C(=O)N[C@@H]1C(=O)N2C(C(=O)[O-])=C(C[n+]3ccccc3)CS[C@H]12)c1csc(N)n1)C(=O)O` [CEFTAZIDIME]: the log10CFU/ml with Acinetobacter baumannii [1] is given as 3; with Acinetobacter baumannii [2], 6.5. Also, in the test on Acinetobacter baumannii [3], the MIC – broadly, the least concentration at which growth counts as inhibited – was not below 64 mg/L.
In the test with Acinetobacter baumannii [3], `CC1(C)S[C@@H]2[C@H](NC(=O)[C@H](N)c3ccccc3)C(=O)N2[C@H]1C(=O)O` [AMPICILLIN] came in with an MIC not below 32 mg/L.
Turning to `O=C1CN(/N=C/c2ccc([N+](=O)[O-])o2)C(=O)N1` [NITROFURANTOIN], the MIC with Acinetobacter baumannii [3] is not below 512 mg/L.
Same read-out and setting: then `C[C@@H](O)[C@H]1C(=O)N2C(C(=O)O)=C(SCCNC=N)C[C@H]12` [IMIPENEM ANHYDROUS], with not above 1 mg/L.
The molecule `C[C@@H](O)[C@H]1C(=O)N2C(C(=O)O)=C(S[C@@H]3CN[C@H](C(=O)N(C)C)C3)[C@H](C)[C@H]12` [MEROPENEM] yielded an MIC against Acinetobacter baumannii [3] of 1 mg/L (≈ 2.61 µM).
In the case of COLISTIN, the result in the test on Acinetobacter baumannii [4], with Acinetobacter baumannii [1], with Acinetobacter baumannii [2], in the test on Acinetobacter baumannii [18], in the test on Acinetobacter baumannii [19] and in the test with Acinetobacter baumannii [20] was inactive. The outcome in the test on Acinetobacter baumannii [21], in the test on Acinetobacter baumannii [22], with Acinetobacter baumannii [23] and in the test with Acinetobacter baumannii [24] was inactive. For the same molecule, the MIC in the test on Acinetobacter baumannii [5] is more than 128 mg/L; in the test on Acinetobacter baumannii [6] it was 64 mg/L; in the test on Acinetobacter baumannii [7], more than 64 mg/L; with Acinetobacter baumannii [8], 128 mg/L; with Acinetobacter baumannii [9], more than 32 mg/L. Further, the log10CFU/ml was 3 in the test on Acinetobacter baumannii [10]; 3 in the test with Acinetobacter baumannii [11]; 3 in the test on Acinetobacter baumannii [12]; 3 in the test with Acinetobacter baumannii [13]; 7 in the test on Acinetobacter baumannii [14]; 7 in the test with Acinetobacter baumannii [15]. Besides, the log10CFU/ml in the test with Acinetobacter baumannii [16] and in the test with Acinetobacter baumannii [17] was 7 throughout.
`NCC[C@H](O)C(=O)N[C@@H]1C[C@H](N)[C@@H](O[C@H]2O[C@H](CN)[C@@H](O)[C@H](O)[C@H]2O)[C@H](O)[C@H]1O[C@H]1O[C@H](CO)[C@@H](O)[C@H](N)[C@H]1O` [AMIKACIN] displayed an MIC in the test with Acinetobacter baumannii [3] not above 2 mg/L.
Still for that read-out and setting: then `C[C@H]1COc2c(N3CCN(C)CC3)c(F)cc3c(=O)c(C(=O)O)cn1c23.C[C@H]1COc2c(N3CCN(C)CC3)c(F)cc3c(=O)c(C(=O)O)cn1c23.O` [LEVOFLOXACIN], with not below 8 mg/L; and GENTAMICIN, with more than 16 mg/L.
As for COLISTIMETHATE SODIUM, the MIC was more than 2050 mg/L with Acinetobacter baumannii [25] and 2 mg/L in the test on Acinetobacter baumannii [3].
